The nature of the series: Resistance of high purity ethyl lactate to peroxide formation in air (Quantofix test paper). Format: physicochemical. Conditions: for level of peroxide: 250 ml ethyl lactate + 0.3 g agent, stirred in air. As to the method: In the procedure used, 250 ml of high purity ethyl lactate containing 0.0 ppm of peroxide as measured with Quantofix™ test paper was added to each of four beakers. The first beaker served as a control and was not treated with any chemical agent. The second beaker was treated with 0.3 g of BHT. The third beaker was treated with 0.3 g of cysteine and the fourth beaker was treated with 0.3 g of methionine. […] The level of peroxide in each of the ethyl lactate samples was monitored and is reported as a function of time in Table 2.

Turning to `Cc1cc(C(C)(C)C)c(O)c(C(C)(C)C)c1` [BHT, butylated hydroxyl toluene], the level of peroxide (time 0 minutes) came to 0.0 ppm; the level of peroxide (time 15 minutes) turned out to be 0.0 ppm; the level of peroxide (time 30 minutes) is given as 0.0 ppm; the level of peroxide (time 60 minutes) is 0.0 ppm; the level of peroxide (time 75 minutes) was 0.0 ppm; the level of peroxide (time 90 minutes) was 0.0 ppm. The level of peroxide runs as follows: (time 105 minutes) 0.0 ppm; (time 120 minutes) 0.0 ppm; (time 150 minutes) 0.0 ppm; (time 180 minutes) 0.0 ppm; (time 240 minutes) 0.0 ppm; (time 300 minutes) 0.0 ppm. The level of peroxide amounted to 0.0 ppm (time 360 minutes) and 0.0 ppm (time 1440 minutes). For the same compound, the “effectiveness as stabilizer against peroxide generation” value (compared with the other compounds evaluated) was “most effective”. Under “ethyl lactate stabilized with BHT, throughout the trial period”, this compound yielded a Gardner color rating of 1.
As to `N[C@@H](CS)C(=O)O` [Cysteine, cysteine], the level of peroxide by setting is: (time 0 minutes) 0.0 ppm; (time 15 minutes) 0.0 ppm; (time 30 minutes) 0.0 ppm; (time 60 minutes) 0.0 ppm; (time 75 minutes) 0.0 ppm; (time 90 minutes) 0.0 ppm. In addition, the level of peroxide reads like this: (time 105 minutes) 0.0 ppm; (time 120 minutes) 0.0 ppm; (time 150 minutes) 0.0 ppm; (time 180 minutes) 0.0 ppm; (time 240 minutes) 0.0 ppm; (time 300 minutes) 0.0 ppm. The level of peroxide (time 360 minutes) stood at 0.0 ppm and the level of peroxide (time 1440 minutes) is recorded as 0.0-0.5 ppm.
Consider `CSCC[C@H](N)C(=O)O` [Methionine, methionine], for which the level of peroxide is 0.0 ppm (time 0 minutes); 0.0 ppm (time 15 minutes); 0.0 ppm (time 30 minutes); 0.5 ppm (time 60 minutes); 0.5-2.0 ppm (time 75 minutes); 0.5-2.0 ppm (time 90 minutes). In addition, the level of peroxide reads like this: (time 105 minutes) 2.0 ppm; (time 120 minutes) 2.0 ppm; (time 150 minutes) 2.0 ppm; (time 180 minutes) 5.0 ppm; (time 240 minutes) 2.0-5.0 ppm; (time 300 minutes) 5.0 ppm. The level of peroxide by setting is: (time 360 minutes) 5.0 ppm; (time 1440 minutes) 5.0 ppm.

The values are drawn from US8048919B2, “Use of ethyl lactate as an excipient for pharmaceutical compositions” (Archer Daniels Midland Company, priority 2004, dated 2011).
